Columns and labels:
Bcl-xL (GST-Bcl-xL) [1] = target: T1, Bcl-xL (GST-Bcl-xL) (Homo sapiens, UniProt Q07817); assay: AlphaScreen Bcl-xL binding assay, competition with biotinylated Bim peptide; parameters: made in house; settings: values listed in the order of Table 1; read-out: Alphascreen results (IC50) against the Bcl-xL protein
Description: The measurement of competition of compounds of the invention with Bim26-mer for a Bcl-2 family protein binding site using an Alpha Screen Bcl-xL binding assay:
The BH3 proteins AlphaScreen™ assay was used to identify active small molecules Bcl-2 family protein screen, e.g., Bcl-xL, hmMcl-1 screen.
The beads come in close proximity when the protein and the peptides interact. Donor beads contain a photosensitiser that converts oxygen to an excited form of O2 at an excitation of 680 nm. Energy is transformed from the singlet oxygen and reacts with chemiluminescers on the acceptor bead, resulting in light emission at 520-620 nm. […] With this information, the IC50 of each compound was calculated
GST-Bcl-xL, GST-hmMcl-1 and biotinylated GST proteins were prepared in-house and were stored as stock solutions at −80° C. The biotinylated-Bak, and biotinylated-Bim peptides were purchased from Auspep and were stored as 500 μM stock solutions in 100% DMSO at −80° C. […] DMSO was purchased from AnalaR.
Compounds of the invention were prepared as 10 mM stocks with 100% DMSO on the day prior to performing the assay. […] To achieve a final compound concentration of 1 μM, in a separate matrical plate, 28 μL of 100% DMSO and 2 μL of 10 mM compound was added to a well, mixed well, 2 μL of this solution was taken and added to 38 μL of 100% DMSO. 20 μL of this solution was added to the test matrical plate. Several control compounds were included in the test plates. For the control wells 15 μL 100% DMSO only was added to the appropriate wells of each plate. The compound plates were then serially diluted 2 fold using the MiniTrak. Once titrations were complete, the compound plate was immediately covered with a foil seal to prevent evaporation.
The assay and bead buffers were prepared fresh. Each titrated compound plate was assayed in duplicate. The following volumes were sufficient to run 12 Proxiplates (4 assay plates run in duplicate in each of Bclxl, hmMcl and counter assays)
Protein and Peptide Preparation; and Assay Performance • 1. The assay and bead buffers were used to prepare the acceptor and donor solutions. ALPHASCREEN™ beads are light sensitive and therefore prepared in a darkened room. 2.5 μL of beads were added per 1 mL of buffer. • 2. The volume of protein or peptide to add was calculated using the following formula:
V2=Volume of stock protein/Peptide to add to Acceptor/Donor solution • 3. The assay components were prepared as separate Acceptor and Donor Solutions. The Acceptor Solution contained Acceptor beads and target protein, while the Donor Solution contained Donor beads and biotinylated peptide.
• 4. After the solutions were prepared, they were left to incubate for 30 minutes at room temperature to allow the beads to bind to the protein and the peptide. • 5. 50 μL of Bcl-xL solution, 50 μL of hmMcl-1 solution and 50 μL of biotinylated-GST were added into separate deep wells on an assay plate. A control 50 μL Assay/Bead buffer was added separate well plates (no protein). • 6. 50 μL of Bim solution and 50 μL of Bak solution were added into separate deep well plates. • 7. Transfer 0.3 μL it of sample from the compound plate into each assay plate. • 8. Incubated for 30 mins at RT, then add 5 μL of the Donor solution. After addition of the Donor solution, tapped plates gently and sealed individually with adhesive film. • 9.
The percent inhibition was calculated using the following equation:
[formula] • x=RFU obtained after compound treatment • μ^−=RFU obtained for the negative controls (no protein controls) • μ^+=RFU obtained for the positive controls (DMSO vehicle controls)

Bcl-xL (GST-Bcl-xL) [2] = target: T1, Bcl-xL (GST-Bcl-xL); assay: TR-FRET binding assay, competition with F-Bak for the Bcl-xL binding site; settings: values listed in the order of Table 1, read-out: TR-FRET assay results (Ki), Bcl-xL
Method: The measurement of competition of compounds of the invention with F-Bak for a Bcl-2 family protein (Bcl-xL) binding site using a Time Resolved Fluorescence Resonance Energy Transfer (TR-FRET) binding assay:
Test compounds were serially diluted in DMSO starting at 50 μM (2× starting concentration; 10% DMSO) and 10 μt transferred into a 384-well plate.
The samples are then mixed on a shaker for 1 minute then incubated for an additional 2 hours at room temperature. For each assay plate, a probe/antibody and protein/antibody/probe mixture were included as a negative and a positive control, respectively. Fluorescence was measured on the Envision (Perkin Elmer) using a 340/35 nm excitation filter and 520/525 (F-Bak) and 495/510 nm (Tb-labeled anti-his antibody) emission filters. Dissociation constants (Ki) were determined using Wang's equation (see, Wang, Z. X. An exact mathematical expression for describing competitive binding of two different ligands to a protein molecule. FEBS Lett. 1995 360:111-114). The TR-FRET assay can be performed in the presence of varying concentrations of human serum (HS) or fetal bovine serum (FBS).

T1 sequence (Q07817 whole entry, species assumed): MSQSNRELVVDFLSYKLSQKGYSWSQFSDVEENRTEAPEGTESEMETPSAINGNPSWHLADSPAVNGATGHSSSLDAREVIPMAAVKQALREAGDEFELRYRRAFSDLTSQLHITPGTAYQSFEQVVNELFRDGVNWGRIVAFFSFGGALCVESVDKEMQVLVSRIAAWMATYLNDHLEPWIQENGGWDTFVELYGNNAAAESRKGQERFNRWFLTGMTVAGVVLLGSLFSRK

**Q.** For O=C(O)c1ccnc(N2CCc3cccc(C(=O)Nc4nc5ccccc5s4)c3C2)n1 [Compound 122, 2-(8-(benzo[d]thiazol-2-ylcarbamoyl)-3,4-dihydroisoquinolin-2(1H)-yl)pyrimidine-4-carboxylic acid], which IC50 (Bcl-xL (GST-Bcl-xL) [1]) is on record?
**A.** 7500 nM

**Q.** O=C(Nc1nc2ccccc2s1)c1cccc2c1CN(c1ncc(Cl)c(C(=O)O)n1)CC2 [Compound 123, 2-(8-(benzo[d]thiazol-2-ylcarbamoyl)-3,4-dihydroisoquinolin-2(1H)-yl)-5-chloropyrimidine-4-carboxylic acid] was tested. Which IC50 (Bcl-xL (GST-Bcl-xL) [1]) did it give?
**A.** 4000 nM

**Q.** Which IC50 (Bcl-xL (GST-Bcl-xL) [1]) does the source give for O=C(O)c1coc(N2CCc3cccc(C(=O)Nc4nc5ccccc5s4)c3C2)n1 [Compound 124, 2-(8-(benzo[d]thiazol-2-ylcarbamoyl)-3,4-dihydroisoquinolin-2(1H)-yl)oxazole-4-carboxylic acid] here?
**A.** 865 nM

**Q.** O=C(CSc1ccccc1)Nc1ccc(N2CCc3cccc(C(=O)Nc4nc5ccccc5s4)c3C2)nc1C(=O)O [Compound 128, 6-(8-(benzo[d]thiazol-2-ylcarbamoyl)-3,4-dihydroisoquinolin-2(1H)-yl)-3-(2-(phenylthio)acetamido)picolinic acid] was tested. Which IC50 (Bcl-xL (GST-Bcl-xL) [1]) did it give?
**A.** 340 nM

**Q.** With O=C(Nc1nc2ccccc2s1)c1cccc2c1CN(c1nc(C(=O)O)c(CCCCn3ccnc3)s1)CC2 [Example 72, 5-(4-(1H-imidazol-1-yl)butyl)-2-(8-(benzo[d]thiazol-2-ylcarbamoyl)-3,4-dihydroisoquinolin-2(1H)-yl)thiazole-4-carboxylic acid] as the compound, how does the Ki (Bcl-xL (GST-Bcl-xL) [2]) read?
**A.** 3 nM

**Q.** With O=C(Nc1nc2ccccc2s1)c1cccc2c1CN(c1nc(C(=O)O)c(CCCOc3ccc(-c4cn[nH]c4)cc3)s1)CC2 [Example 73, 5-(3-(4-(1H-pyrazol-4-yl)phenoxy)propyl)-2-(8-(benzo[d]thiazol-2-ylcarbamoyl)-3,4-dihydroisoquinolin-2(1H)-yl)thiazole-4-carboxylic acid] as the compound, how does the Ki (Bcl-xL (GST-Bcl-xL) [2]) read?
**A.** 0.08 nM

**Q.** N[C@H]1[C@@H]2CCC[C@H]1[C@@H](c1ccc(OCCCc3sc(N4CCc5cccc(C(=O)Nc6nc7ccccc7s6)c5C4)nc3C(=O)O)cc1)CC2 [Example 80, 5-(3-(4-((1S,2S,5R,9S)-9-aminobicyclo[3.3.1]nonan-2-yl)phenoxy)propyl)-2-(8-(benzo[d]thiazol-2-ylcarbamoyl)-3,4-dihydroisoquinolin-2(1H)-yl)thiazole-4-carboxylic acid] was tested. Which Ki (Bcl-xL (GST-Bcl-xL) [2]) did it give?
**A.** 0.5 nM

**Q.** Which Ki (Bcl-xL (GST-Bcl-xL) [2]) does the source give for O=C(Nc1nc2ccccc2s1)c1cccc2c1CN(c1nc(C(=O)O)c(CCCOc3ccc(-c4cnn(CCN5CCOCC5)c4)cc3)s1)CC2 [Example 83, 2-(8-(benzo[d]thiazol-2-ylcarbamoyl)-3,4-dihydroisoquinolin-2(1H)-yl)-5-(3-(4-(1-(2-morpholinoethyl)-1H-pyrazol-4-yl)phenoxy)propyl)thiazole-4-carboxylic acid] here?
**A.** 0.05 nM

**Q.** With Cc1c(CN2CCN(C)CC2)cnn1-c1ccc(OCCCc2sc(N3CCc4cccc(C(=O)Nc5nc6ccccc6s5)c4C3)nc2C(=O)O)cc1 [Example 85, 2-(8-(benzo[d]thiazol-2-ylcarbamoyl)-3,4-dihydroisoquinolin-2(1H)-yl)-5-(3-(4-(5-methyl-4-((4-methylpiperazin-1-yl)methyl)-1H-pyrazol-1-yl)phenoxy)propyl)thiazole-4-carboxylic acid] as the compound, how does the Ki (Bcl-xL (GST-Bcl-xL) [2]) read?
**A.** 0.05 nM

**Q.** How did the Ki (Bcl-xL (GST-Bcl-xL) [2]) turn out when CN1CCN(Cc2ccc(OCCCc3sc(N4CCc5cccc(C(=O)Nc6nc7ccccc7s6)c5C4)nc3C(=O)O)cc2)CC1 [Example 89, 2-[8-(Benzothiazol-2-ylcarbamoyl)-3,4-dihydro-1H-isoquinolin-2-yl]-5-{3-[4-(4-methyl-piperazin-1-ylmethyl)-phenoxy]-propyl}-thiazole-4-carboxylic acid] was run?
**A.** 0.1 nM

**Q.** How did the Ki (Bcl-xL (GST-Bcl-xL) [2]) turn out when CN1CCN(CCCN(CCCc2sc(N3CCc4cccc(C(=O)Nc5nc6ccccc6s5)c4C3)nc2C(=O)O)c2ncnc3c2cnn3-c2ccc(O)cc2)CC1 [Example 91, 2-(8-(benzo[d]thiazol-2-ylcarbamoyl)-3,4-dihydroisoquinolin-2(1H)-yl)-5-(3-((1-(4-hydroxyphenyl)-1H-pyrazolo[3,4-d]pyrimidin-4-yl)(3-(4-methylpiperazin-1-yl)propyl)amino)propyl)thiazole-4-carboxylic acid] was run?
**A.** 0.7 nM

**Q.** CN(C)CCCNc1ncnc2c1cnn2-c1ccc(OCCCc2ccc(N3CCc4cccc(C(=O)Nc5nc6ccccc6s5)c4C3)nc2C(=O)O)cc1 [Example 92, 6-(8-(benzo[d]thiazol-2-ylcarbamoyl)-3,4-dihydroisoquinolin-2(1H)-yl)-3-(3-(4-(4-(3-(dimethylamino)propylamino)-1H-pyrazolo[3,4-d]pyrimidin-1-yl)phenoxy)propyl)picolinic acid] was tested. Which Ki (Bcl-xL (GST-Bcl-xL) [2]) did it give?
**A.** 0.05 nM

**Q.** How did the Ki (Bcl-xL (GST-Bcl-xL) [2]) turn out when O=C(Nc1nc2ccccc2s1)c1cccc2c1CN(c1ccc(CCCO)c(C(=O)O)n1)CC2 [Example 99, 6-[8-(Benzothiazol-2-ylcarbamoyl)-3,4-dihydro-1H-isoquinolin-2-yl]-3-(3-hydroxy-propyl)-pyridine-2-carboxylic acid] was run?
**A.** 125 nM

**Q.** CN1CCN(c2ccc(OCCCc3ccc(N4CCc5cccc(C(=O)Nc6nc7ccccc7s6)c5C4)nc3C(=O)O)c(F)c2)CC1 [Example 101, 6-(8-(benzo[d]thiazol-2-ylcarbamoyl)-3,4-dihydroisoquinolin-2(1H)-yl)-3-(3-(2-fluoro-4-(4-methylpiperazin-1-yl)phenoxy)propyl)picolinic acid] was tested. Which Ki (Bcl-xL (GST-Bcl-xL) [2]) did it give?
**A.** 0.7 nM

**Q.** CN(C)CCCc1ccc(OCCCc2sc(N3CCc4cccc(C(=O)Nc5nc6ccccc6s5)c4C3)nc2C(=O)O)cc1 [Example 107, 2-(8-(benzo[d]thiazol-2-ylcarbamoyl)-3,4-dihydroisoquinolin-2(1H)-yl)-5-(3-(4-(3-(dimethylamino)propyl)phenoxy)propyl)thiazole-4-carboxylic acid] was tested. Which Ki (Bcl-xL (GST-Bcl-xL) [2]) did it give?
**A.** 0.15 nM

**Q.** Which Ki (Bcl-xL (GST-Bcl-xL) [2]) does the source give for O=C(Nc1nc2ccccc2s1)c1cccc2c1CN(c1nc(C(=O)O)c(C#Cc3ccc4cc(OCCCN5CCOCC5)ccc4c3)s1)CC2 [Example 110, 2-(8-(benzo[d]thiazol-2-ylcarbamoyl)-3,4-dihydroisoquinolin-2(1H)-yl)-5-((6-(3-morpholinopropoxy)naphthalen-2-yl)ethynyl)thiazole-4-carboxylic acid] here?
**A.** 0.07 nM

**Q.** Which Ki (Bcl-xL (GST-Bcl-xL) [2]) does the source give for O=C(Nc1nc2ccccc2s1)c1cccc2c1CN(c1nc(C(=O)O)c(CCc3ccc4cc(OCCCN5CCOCC5)ccc4c3)s1)CC2 [Example 111, 2-(8-(benzo[d]thiazol-2-ylcarbamoyl)-3,4-dihydroisoquinolin-2(1H)-yl)-5-(2-(6-(3-morpholinopropoxy)naphthalen-2-yl)ethyl)thiazole-4-carboxylic acid] here?
**A.** 0.02 nM

**Q.** O=C(Nc1nc2ccccc2s1)c1cccc2c1CN(c1nc(C(=O)O)c(CCCOc3cc(F)c(NCCN4CCOCC4)cc3F)s1)CC2 [Example 115, 2-(8-(benzo[d]thiazol-2-ylcarbamoyl)-3,4-dihydroisoquinolin-2(1H)-yl)-5-(3-(2,5-difluoro-4-(2-morpholinoethylamino)phenoxy)propyl)thiazole-4-carboxylic acid] was tested. Which Ki (Bcl-xL (GST-Bcl-xL) [2]) did it give?
**A.** 0.05 nM
